# Test results from patent US20130202698A1 (NANJING SANHOME PHARMACEUTICAL CO., LTD., priority 2005, published 2013).
# Where two headings read alike, the source gives them in different places. Marks after values point to notes of the source that are not given here.
# How the values were obtained:
# [1] = tested on: isoniazid-induced convulsion; experiment: Anticonvulsant effects on isoniazid-induced convulsion in mice; format: in vivo; details: Mean ± SD, n=10
# Protocol: (§1) Mice are randomized into 4 treatment groups (n=10 with half male and half female): dextro- or levo-ornidazole (dosage 40, 80, 160 mg/kg), vehicle control group (15% propylene glycol in 0.9% sodium chloride, 20 mL/kg) and the positive control group. Animals are treated with known convulsion-inducing agents, followed by the drug or vehicle control given intravenously. The dose volume is 20 mL/kg with an infusion rate of 0.2 mL/10 seconds. The anticonvulsant effects are observed and recorded (see Tables 2-6).
# [2] = Phase II clinical trial, oral tablets, departments of stomatology, adverse events; format: in vivo, human; details: human, in vivo, po
# Protocol: (§2) Double-blinded randomized controlled trials were carried out to compare the adverse events of oral levo-ornidazole with racemate treatment groups. Two separate studies were conducted for patients with infections from either department of stomatology or obstetrics/gynecology.
# [3] = Phase II clinical trial, oral tablets, departments of obstetrics/gynecology, adverse events; format: in vivo, human; details: human, in vivo, po
# Protocol: as §2
# [4] = tested on: thiosemicarbazide-induced convulsion; experiment: Anticonvulsant effects on thiosemicarbazide-induced convulsion in mice; format: in vivo; details: n=10; for Convulsion Latency / Time to Death: Mean ± SD
# Protocol: as §1
# [5] = tested on: spontaneous activities of mice; details: both, mouse, in vivo, iv
# Protocol: Mice weighing 18-22 g, half male and half female, were placed in the laboratory 24 hours before the test to adapt to the environment. The room temperature was controlled at 24±2° C. Animals were fasted for 8 hours before testing, and then placed in a transparent cage. The number of spontaneous activities of mice was counted by an automatic device (model XZ-4 by Drug Research Institute of China Academy of Medical Sciences). Mice were pre-screened by counting their spontaneous activities for five minutes and unqualified mice were excluded. A total of 110 mice were selected and divided into 11 groups with 10 mice in each group.
# Chlorpromazine (3 mg/kg) was used as the positive control. The dose volume was 0.2 mL/10 gram and infusion rate was 0.2 mL/10 seconds.
# [6] = Acute toxicity in mice (LD50); details: mouse, in vivo
# [7] = rat, in vivo
# [8] = tested on: Strychnine-induced convulsion; experiment: Anticonvulsant effects on Strychnine-induced convulsion in mice; format: in vivo; details: n=10; for Convulsion Latency: Mean ± SD
# Protocol: as §1
smiles,measurement,setting,value
"Cc1ncc([N+](=O)[O-])n1C[C@H](O)CCl [L-ornidazole, S-(−)-ornidazole]",Convulsion Latency,[1]; 40 mg/kg i.v.,37.1 ± 5.8 min
same,Time to Death,[1]; 40 mg/kg i.v.,47.6 ± 5.6 min
same,Convulsion Latency,[1]; 80 mg/kg i.v.,38.3 ± 6.3 min
same,Time to Death,[1]; 80 mg/kg i.v.,48.3 ± 9.6 min
same,Convulsion Latency,[1]; 160 mg/kg i.v.,45.0 ± 7.8 min
same,Time to Death,[1]; 160 mg/kg i.v.,75.2 ± 19.0 min
same,"Bloating, # of Patients with AE",[2],0
same,"Bloating, Incidence (%)",[2],0.00%
same,"Constipation, # of Patients with AE",[2],1
same,"Constipation, Incidence (%)",[2],0.72%
same,"Drowsy, # of Patients with AE",[2],0
same,"Drowsy, Incidence (%)",[2],0.00%
same,"Dry mouth, # of Patients with AE",[2],0
same,"Dry mouth, Incidence (%)",[2],0.00%
same,"Headache, # of Patients with AE",[2],0
same,"Headache, Incidence (%)",[2],0.00%
same,"Hypersomnia, # of Patients with AE",[2],0
same,"Hypersomnia, Incidence (%)",[2],0.00^# %
same,"Hypodynamia, # of Patients with AE",[2],0
same,"Hypodynamia, Incidence (%)",[2],0.00%
same,"Loss of appetite, # of Patients with AE",[2],0
same,"Loss of appetite, Incidence (%)",[2],0.00%
same,"Nausea, # of Patients with AE",[2],4
same,"Nausea, Incidence (%)",[2],2.88%
same,"Palpitation, # of Patients with AE",[2],0
same,"Palpitation, Incidence (%)",[2],0.00%
same,Patients with adverse events (total),[2],5 patients
same,"Pruritus, # of Patients with AE",[2],0
same,"Pruritus, Incidence (%)",[2],0.00%
same,"Rash, # of Patients with AE",[2],0
same,"Rash, Incidence (%)",[2],0.00%
same,"Sourregurgitation, # of Patients with AE",[2],0
same,"Sourregurgitation, Incidence (%)",[2],0.00%
same,"Stomach discomfort, # of Patients with AE",[2],0
same,"Stomach discomfort, Incidence (%)",[2],0.00^# %
same,"Stupor, # of Patients with AE",[2],0
same,"Stupor, Incidence (%)",[2],0.00%
same,Total incidence rate of adverse events,[2],3.60%
same,"Vertigo, # of Patients with AE",[2],0
same,"Vertigo, Incidence (%)",[2],0.00%
same,"Vomiting, # of Patients with AE",[2],0
same,"Vomiting, Incidence (%)",[2],0.00%
same,"Abdominal pain, # of Patients with AE",[3],0
same,"Abdominal pain, Incidence (%)",[3],0.00%
same,"Appetite drop, # of Patients with AE",[3],0
same,"Appetite drop, Incidence (%)",[3],0.00%
same,"Bitter taste, # of Patients with AE",[3],0
same,"Bitter taste, Incidence (%)",[3],0.00%
same,"Bloating, # of Patients with AE",[3],0
same,"Bloating, Incidence (%)",[3],0.00%
same,"Blurred vision, # of Patients with AE",[3],0
same,"Blurred vision, Incidence (%)",[3],0.00%
same,"Breast tenderness, # of Patients with AE",[3],0
same,"Breast tenderness, Incidence (%)",[3],0.00%
same,"Chest tightness, # of Patients with AE",[3],0
same,"Chest tightness, Incidence (%)",[3],0.00%
same,"Dazzle, # of Patients with AE",[3],0
same,"Dazzle, Incidence (%)",[3],0.00%
same,"Diarrhea, # of Patients with AE",[3],0
same,"Diarrhea, Incidence (%)",[3],0.00%
same,"Dizziness, # of Patients with AE",[3],0
same,"Dizziness, Incidence (%)",[3],0.00%
same,"Dry mouth, # of Patients with AE",[3],0
same,"Dry mouth, Incidence (%)",[3],0.00%
same,"Headache, # of Patients with AE",[3],0
same,"Headache, Incidence (%)",[3],0.00%
same,"Hypersomnia, # of Patients with AE",[3],0
same,"Hypersomnia, Incidence (%)",[3],0.00^## %
same,"Hypodynamia, # of Patients with AE",[3],0
same,"Hypodynamia, Incidence (%)",[3],0.00%
same,"Nausea, # of Patients with AE",[3],1
same,"Nausea, Incidence (%)",[3],0.70^# %
same,"Oral malodor, # of Patients with AE",[3],1
same,"Oral malodor, Incidence (%)",[3],0.70%
same,Patients with adverse events (total),[3],5 patients
same,"Rash, # of Patients with AE",[3],1
same,"Rash, Incidence (%)",[3],0.70%
same,"Stomach ache, # of Patients with AE",[3],1
same,"Stomach ache, Incidence (%)",[3],0.70%
same,"Stomach discomfort, # of Patients with AE",[3],1
same,"Stomach discomfort, Incidence (%)",[3],0.70%
same,Total incidence rate of adverse events,[3],3.50%
same,"Vertigo, # of Patients with AE",[3],0
same,"Vertigo, Incidence (%)",[3],0.00^## %
same,"Vomiting, # of Patients with AE",[3],0
same,"Vomiting, Incidence (%)",[3],0.00%
same,Convulsion Latency,[4]; 40 mg/kg i.v.,77.1 ± 16.8 min
same,Time to Death,[4]; 40 mg/kg i.v.,122.6 ± 29.8 min
same,Convulsion Latency,[4]; 80 mg/kg i.v.,85.0 ± 30.9 min
same,Time to Death,[4]; 80 mg/kg i.v.,116.7 ± 38.7 min
same,Mortality Rate,[4]; 160 mg/kg i.v.,9/10^##
same,Rate of Convulsion,[4]; 160 mg/kg i.v.,9/10^##
same,Spontaneous Activities (per 5 min),"[5]; 40 mg/kg, 0.5 h",89 ± 48 per 5 min
same,Spontaneous Activities (per 5 min),"[5]; 40 mg/kg, 1 h",75 ± 40 per 5 min
same,Spontaneous Activities (per 5 min),"[5]; 40 mg/kg, 2 h",69 ± 29 per 5 min
same,Spontaneous Activities (per 5 min),"[5]; 40 mg/kg, 3 h",63 ± 16 per 5 min
same,Spontaneous Activities (per 5 min),"[5]; 40 mg/kg, 4 h",87 ± 43 per 5 min
same,Spontaneous Activities (per 5 min),"[5]; 80 mg/kg, 0.5 h",59 ± 27 per 5 min
same,Spontaneous Activities (per 5 min),"[5]; 80 mg/kg, 1 h",47 ± 30 per 5 min
same,Spontaneous Activities (per 5 min),"[5]; 80 mg/kg, 2 h",44 ± 25 per 5 min
same,Spontaneous Activities (per 5 min),"[5]; 80 mg/kg, 3 h",58 ± 36 per 5 min
same,Spontaneous Activities (per 5 min),"[5]; 80 mg/kg, 4 h",64 ± 36 per 5 min
same,Spontaneous Activities (per 5 min),"[5]; 160 mg/kg, 0.5 h",40 ± 31 per 5 min
same,Spontaneous Activities (per 5 min),"[5]; 160 mg/kg, 1 h",45 ± 25 per 5 min
same,Spontaneous Activities (per 5 min),"[5]; 160 mg/kg, 2 h",38 ± 18 per 5 min
same,Spontaneous Activities (per 5 min),"[5]; 160 mg/kg, 3 h",53 ± 23 per 5 min
same,Spontaneous Activities (per 5 min),"[5]; 160 mg/kg, 4 h",58 ± 26 per 5 min
same,LD50,[6]; intravenous injection,332 mg/kg
same,LD50,"[6]; ip, intraperitoneal injection",1380 mg/kg
same,LD50,[6]; oral gavage,1070 mg/kg
same,"Distribution in different region of brain, levo- vs dextro-ornidazole",[7],Similar
same,Convulsion Latency,[8]; 40 mg/kg i.v.,5.3 ± 2.3 min
same,Mortality Rate,[8]; 40 mg/kg i.v.,10/10
same,Convulsion Latency,[8]; 80 mg/kg i.v.,7.5 ± 3.3 min
same,Mortality Rate,[8]; 80 mg/kg i.v.,10/10
same,Convulsion Latency,[8]; 160 mg/kg i.v.,8.6 ± 2.3 min
same,Mortality Rate,[8]; 160 mg/kg i.v.,6/10^#
